Where a name gives a salt, the structure may show the parent alone.
These compounds were tested against T1, ENPP1 protein (Homo sapiens, UniProt P22413) (assay: Thermal Shift Binding Assay). Settings: 1 μg of ENPP1 protein incubated with 100 μM of drug for 5 minutes; read-out: Thermal Shift (Δ TmD).
T1 sequence (P22413 1-925): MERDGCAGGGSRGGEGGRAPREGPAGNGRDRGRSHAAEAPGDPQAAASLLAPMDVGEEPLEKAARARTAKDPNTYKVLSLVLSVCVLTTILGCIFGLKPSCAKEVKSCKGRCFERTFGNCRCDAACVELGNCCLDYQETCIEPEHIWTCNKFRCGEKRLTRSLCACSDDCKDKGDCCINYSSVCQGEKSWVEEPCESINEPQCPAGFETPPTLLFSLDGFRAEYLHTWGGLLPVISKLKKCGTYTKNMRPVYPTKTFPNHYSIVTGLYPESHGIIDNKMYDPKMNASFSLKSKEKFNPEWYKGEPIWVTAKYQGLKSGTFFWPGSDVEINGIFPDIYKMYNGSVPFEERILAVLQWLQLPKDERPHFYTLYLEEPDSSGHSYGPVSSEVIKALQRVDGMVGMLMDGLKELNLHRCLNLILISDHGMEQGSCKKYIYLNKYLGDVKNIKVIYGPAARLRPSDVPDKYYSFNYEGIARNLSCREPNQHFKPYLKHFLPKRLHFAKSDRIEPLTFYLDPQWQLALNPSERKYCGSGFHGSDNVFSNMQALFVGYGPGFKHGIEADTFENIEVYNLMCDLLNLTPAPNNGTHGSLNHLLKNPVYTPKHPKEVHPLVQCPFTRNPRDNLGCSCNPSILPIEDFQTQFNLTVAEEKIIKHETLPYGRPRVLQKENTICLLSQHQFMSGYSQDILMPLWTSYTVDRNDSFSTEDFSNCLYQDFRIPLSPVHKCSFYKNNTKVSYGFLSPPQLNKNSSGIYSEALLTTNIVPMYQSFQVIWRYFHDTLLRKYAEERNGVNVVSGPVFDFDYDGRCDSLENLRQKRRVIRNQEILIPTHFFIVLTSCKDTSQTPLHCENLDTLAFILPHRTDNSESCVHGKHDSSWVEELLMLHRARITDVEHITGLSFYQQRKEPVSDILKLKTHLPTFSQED
Experimental: Thermal Shift Binding Assay.
The Thermal Shift Assays were implemented to study thermal stabilization of ENPP1 proteins upon ENPP1 inhibitor or ligand binding. These assays were used extensively on purified ENPP1 protein. In a 384-well plate, 1 μg of ENPP1 protein was incubated with 100 μM of the corresponding drug for 5 minutes. Each well was exposed to increasing temperatures to determine an unfolding temperature of the protein. […] 2′3′ cGAMP was used as a positive control, as it is a substrate of ENPP1.

| SMILES | ΔTm at 100 µM [°C] |
| --- | --- |
| COc1ccc(OC)c(S(=O)(=O)Nc2cnc3ccccc3c2)c1 [Compound I-06, 2,5-dimethoxy-N-(quinolin-3-yl)benzenesulfonamide] | 1.6 |

What follows are compounds tested against T1, ENPP1 protein (assay: ENPP1 Inhibition Assay). Settings: substrate Thymidine 5′-monophosphate p-nitrophenol ester; 37° C. for 45 minutes; absorbance at 405 nm.
Type: biochemical
Design: purchased R&D 6136-EN-010
Experimental: 1. ENPP1 Inhibition Assay
An eight point serial dilution of drugs was prepared in 10× in assay buffer with the final assay concentrations starting at 10 μM, 3 μM, 1 μM, 0.3 μM . . . 0 μM. A dilution of DMSO was included as a control. The assay plate was set up as follows with each well in duplicate: 81 μL assay buffer+10 μL ENPP1 inhibitor or DMSO+5 μL Substrate+4 μL Enzyme. Both the enzyme and substrate were added to opposite sides of the well to ensure that there was no interaction until all wells had both components. The plate was then centrifuged gently for 10 seconds, followed by an incubation at 37° C. for 45 minutes.
IC50 values are determined using GraphPad Prism 5 software. The data were entered as an X-Y plot into the software as percent inhibition for each concentration of the drug. The concentration values of the drug were log transformed and the nonlinear regression was carried out using the “sigmoidal dose-response (variable slope)” option within the GraphPad software to model the data and calculate IC50 values.

| SMILES | IC50 [nM] |
| --- | --- |
| COCOc1cc2c(N3CCN(C4(CNS(N)(=O)=O)CC4)CC3)ncnc2cc1OC [Compound I-33, N-((1-(4-(7-methoxy-6-(methoxymethoxy)quinazolin-4-yl)piperazin-1-yl)cyclopropyl)methyl)sulfuricdiamide] | 158 |
| COCCOc1cc2c(N3CCC(C(C)CNS(N)(=O)=O)CC3)ccnc2cc1OC (centres unmarked) [Compound I-10, N-(2-(1-(7-methoxy-6-(2-methoxyethoxy)quinolin-4-yl)piperidin-4-yl)propyl)aninosulfonamide formate salt] | 156 |
| COc1cc2nccc(N3CCC(C4CCCN(S(N)(=O)=O)C4)CC3)c2cc1OC (centres unmarked) [Compound I-17, 6,7-dimethoxy-4-(1-(aminosulfonyl)-[3,4′-bipiperidin]-1′-yl)quinoline formate salt] | 75.8 |
| COc1cc2nccc(N3CCC(C(C)CN(C4CC4)S(N)(=O)=O)CC3)c2cc1OC (centres unmarked) [Compound I-16, N-cyclopropyl-N-(2-(1-(6,7-dimethoxyquinolin-4-yl)piperidin-4-yl)propyl)aminosulfonamide formate salt] | 409 |
| COc1cc2ncnc(N3CCC(C(C)(C)CNS(N)(=O)=O)CC3)c2cc1OC [Compound I-26, N-(2-(1-(6,7-dimethoxyquinazolin-4-yl)piperidin-4-yl)-2-methylpropyl)sulfuricdiamide formate salt] | 2.39 |
| COc1cc2ncnc(N3CCC(N(C4CC4)S(N)(=O)=O)CC3)c2cc1OC [Compound I-30] | 5610 |
| COc1cc2ncnc(N3CCN(C4(CNS(N)(=O)=O)CC4)CC3)c2cc1OC [Compound I-32, N-((1-(4-(6,7-dimethoxyquinazolin-4-yl)piperazin-1-yl)cyclopropyl)methyl)sulfuricdiamide] | 55.6 |
| COCOc1cc2c(N3CCC(C(C)(C)CNS(N)(=O)=O)CC3)ncnc2cc1OC [Compound I-36, N-(2-(1-(7-methoxy-6-(methoxymethoxy)quinazolin-4-yl)piperidin-4-yl)-2-methylpropyl)sulfuricdiamide] | 52.6 |
| COCOc1cc2c(N3CCC(C(C)CNS(N)(=O)=O)CC3)ncnc2cc1OC (centres unmarked) [Compound I-28] | 26.2 |
| COc1ccc2nccc(N3CCC(C(C)CNS(N)(=O)=O)CC3)c2c1 (centres unmarked) [Compound I-08, N-(2-(1-(6-methoxyquinolin-4-yl)piperidin-4-yl)propyl)aminosulfonamide] | 224 |
| COCOc1cc2c(N3CCC(C4(CNS(N)(=O)=O)CC4)CC3)ncnc2cc1OC [Compound I-35, N-((1-(1-(7-methoxy-6-(methoxymethoxy)quinazolin-4-yl)piperidin-4-yl)cyclopropyl)methyl)sulfuricdiamide] | 49.2 |
| COc1ccc2c(N3CCC(C(C)CNS(N)(=O)=O)CC3)ccnc2c1 (centres unmarked) [Compound I-07, N-(2-(1-(7-methoxyquinolin-4-yl)piperidin-4-yl)propyl)aminosulfonamide] | 250 |
| COc1cc2nccc(N3CCC(NS(N)(=O)=O)CC3)c2cc1OC [Compound I-23, N—(N-(1-(6,7-dimethoxyquinolin-4-yl)piperidin-4-yl)sulfuricdiamide formate salt] | 897 |
| CNS(=O)(=O)NCC(C)C1CCN(c2ccnc3cc(OC)c(OC)cc23)CC1 (centres unmarked) [Compound I-15, N-(2-(1-(6,7-dimethoxyquinolin-4-yl)piperidin-4-yl)propyl)Methyaminosulfonamide] | 3480 |
| COc1cc2ncnc(N3CCC(C4(CNS(N)(=O)=O)CC4)CC3)c2cc1OC [Compound I-27, N—(N-((1-(1-(6,7-dimethoxyquinazolin-4-yl)piperidin-4-yl)cyclopropyl)methyl)sulfuricdiamide formate salt] | 11.5 |
| COc1ccc(OC)c(S(=O)(=O)Nc2cnc3ccccc3c2)c1 [Compound I-06, 2,5-dimethoxy-N-(quinolin-3-yl)benzenesulfonamide] | 5150 |

| SMILES | IC50 [nM] |
| --- | --- |
| COc1cc2nccc(N3CCC(C4(CNS(N)(=O)=O)CC4)CC3)c2cc1OC [Compound I-22] | 9.09 |
| COc1cc2nccc(N3CCN(C4(CNS(N)(=O)=O)CC4)CC3)c2cc1OC [Compound I-31, N-((1-(4-(6,7-dimethoxyquinolin-4-yl)piperazin-1-yl)cyclopropyl)methyl)sulfuricdiamide] | 23.7 |
| COc1cc2nccc(N3CCC(C(C)(C)CNS(N)(=O)=O)CC3)c2cc1OC [Compound I-14, N-(2-(1-(6,7-dimethoxyquinolin-4-yl)piperidin-4-yl)-2-methylpropyl)sulfuricdiamide hydro chloride salt] | 35.2 |
| COc1cc2nccc(N3CCC(N(C4CC4)S(N)(=O)=O)CC3)c2cc1OC [Compound I-24, N—(N-cyclopropyl-N-(1-(6,7-dimethoxyquinolin-4-yl)piperidin-4-yl)sulfuricdiamide formate salt] | 953 |
| COc1cc2ncnc(N3CCN(C4(CNS(N)(=O)=O)CC4)CC3)c2cc1OCF [Compound I-34, N-((1-(4-(6-(fluoromethoxy)-7-methoxyquinazolin-4-yl)piperazin-1-yl)cyclopropyl)methyl)sulfuricdiamide] | 133 |
| COc1cc2nccc(N3CCC(C(=O)NC4(C#N)CC4)CC3)c2cc1OC [Compound I-18, N-(1-cyanocyclopropyl)-1-(6,7-dimethoxyquinolin-4-yl)piperidine-4-carboxamide] | > 10000 |
| CCC(CNS(N)(=O)=O)C1CCN(c2ncnc3cc(OC)c(OC)cc23)CC1 (centres unmarked) [Compound I-25, N—(N-(2-(1-(6,7-dimethoxyquinazolin-4-yl)piperidin-4-yl)butyl)sulfuricdiamide formate salt] | 5.05 |
| COc1cc2nccc(N3CCC(C4(CNS(N)(=O)=O)CC4)CC3)c2cc1OCF [Compound I-37, N-((1-(1-(6-(fluoromethoxy)-7-methoxyquinolin-4-yl)piperidin-4-yl)cyclopropyl)methyl)sulfuricdiamide] | 1.09 |
| COc1cc2nccc(N3CCC(C(C)CNS(N)(=O)=O)CC3)c2cc1O (centres unmarked) [Compound I-09, N—(N-(2-(1-(6-hydroxy-7-methoxyquinolin-4-yl)piperidin-4-yl)propyl)sulfuricdiamide formate salt] | 1880 |
| COc1cc2nccc(N3CCC(C(C)CNS(N)(=O)=O)CC3)c2cc1OCCO (centres unmarked) [Compound I-11, N-(2-(1-(6-(2-hydroxyethoxy)-7-methoxyquinolin-4-yl)piperidin-4-yl)propyl)aminosulfonamide formate salt] | 4490 |
| COc1cc2ncnc(N3CCC(CCNS(N)(=O)=O)CC3)c2cc1OP(=O)(O)O [Compound I-03, sodium 7-methoxy-4-(4-(2-(sulfamoylamino)ethyl)piperidin-1-yl)quinazolin-6-yl phosphate] | 2870 |
| COc1cc2nccc(N3CCN(CCNS(N)(=O)=O)[C@H](C)C3)c2cc1OC [Compound I-21, (R)—N-(2-(4-(6,7-dimethoxyquinolin-4-yl)-2-methylpiperazin-1-yl)ethyl)aminosulfonamide formate salt] | 344 |
| COc1cc2nccc(N3CCN(C(C)CNS(N)(=O)=O)CC3)c2cc1OC (centres unmarked) [Compound I-20, N-(2-(4-(6,7-dimethoxyquinolin-4-yl)piperazin-1-yl)propyl)aminosulfonamide formate salt] | 14 |
| COc1cc2nccc(N3CCC(C(C)CNS(C)(=O)=O)CC3)c2cc1OC (centres unmarked) [Compound I-19, N-(2-(1-(6,7-dimethoxyquinolin-4-yl)piperidin-4-yl)propyl)methanesulfonamide] | 3810 |
| COc1cc2ncnc(N3CCC(NS(N)(=O)=O)CC3)c2cc1OC [Compound I-29, N—(N-(1-(6,7-dimethoxyquinazolin-4-yl)piperidin-4-yl)sulfuricdiamide formate salt] | 420 |
